Measurements reported in US12582644B2, “O-GlcNAc transferase inhibitors and uses thereof” (President and Fellows of Harvard College, priority 2018, dated 2026).
In brackets after ≈: the same amount, converted by molar mass.

Legend:
[1] = Rat liver microsome stability assay; format: in vitro ADME; details: rat liver microsomes; read-out: RLM Stability (t1/2)
[2] = PAMPA assay; format: in vitro ADME; details: read-out: Permeability
[3] = Kinetic solubility; format: physicochemical; details: kinetic from dmso stock
[4] = biological target: T1, ncOGT (Homo sapiens, UniProt O15294); experiment: UDP-Glo Glycosyltransferase Assay (IC50/Ki); format: biochemical
T1 construct: Full length human OGT (ncOGT); made in house
T1 sequence (O15294 1-1046): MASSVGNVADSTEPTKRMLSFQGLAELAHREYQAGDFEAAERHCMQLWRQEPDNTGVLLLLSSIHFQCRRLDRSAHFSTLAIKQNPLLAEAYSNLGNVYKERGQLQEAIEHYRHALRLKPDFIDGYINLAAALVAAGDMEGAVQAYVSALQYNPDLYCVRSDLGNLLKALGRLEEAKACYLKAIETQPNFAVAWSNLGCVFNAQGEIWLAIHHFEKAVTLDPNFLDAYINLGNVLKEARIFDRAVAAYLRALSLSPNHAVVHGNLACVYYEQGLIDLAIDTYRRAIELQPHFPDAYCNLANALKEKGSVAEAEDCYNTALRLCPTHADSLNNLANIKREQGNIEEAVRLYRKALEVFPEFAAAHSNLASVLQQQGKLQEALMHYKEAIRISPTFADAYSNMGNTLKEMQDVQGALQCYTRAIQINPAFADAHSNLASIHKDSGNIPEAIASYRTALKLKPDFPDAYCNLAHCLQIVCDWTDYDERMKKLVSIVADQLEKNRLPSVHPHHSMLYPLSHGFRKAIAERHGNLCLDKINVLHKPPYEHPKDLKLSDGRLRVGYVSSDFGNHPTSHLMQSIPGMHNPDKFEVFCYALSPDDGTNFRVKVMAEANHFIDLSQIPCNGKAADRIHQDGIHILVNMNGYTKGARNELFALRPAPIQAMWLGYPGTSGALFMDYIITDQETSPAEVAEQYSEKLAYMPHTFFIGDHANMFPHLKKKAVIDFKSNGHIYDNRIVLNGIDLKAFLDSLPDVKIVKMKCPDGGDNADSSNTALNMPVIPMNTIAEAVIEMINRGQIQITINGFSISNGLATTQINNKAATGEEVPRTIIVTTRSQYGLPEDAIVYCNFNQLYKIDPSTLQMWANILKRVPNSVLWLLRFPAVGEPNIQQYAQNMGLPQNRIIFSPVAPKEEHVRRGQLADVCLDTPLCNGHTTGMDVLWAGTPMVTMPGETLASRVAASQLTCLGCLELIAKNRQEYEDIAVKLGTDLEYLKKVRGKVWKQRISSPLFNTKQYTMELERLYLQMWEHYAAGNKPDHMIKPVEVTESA
Method: Materials for this assay were obtained from Promega (catalog #V6961). […] Assays were performed in white, 384-well or H volume 96-well plates. Quantities in parenthesis apply to reactions run in H volume 96-well plates. Reaction volumes were 12 (24) μL. […] The quenched reactions were then mixed briefly by shaking at 600 rpm in a Thermomixer C, spun down at 400×g for 1 minute, and incubated for one hour at room temperature prior to reading luminescence, as per the manufacturer's guidelines. Data were analyzed by Microsoft Excel and Prism 7 (Graphpad). […] Each sample was run in duplicate, unless otherwise specified.

[5] = system: global O-GlcNAcylation in LNCaP cells; experiment: Western blotting for O-GlcNAc levels in LNCaP cells; details: LNCaP prostate cancer cells
Method: (§3) Cells were plated and grown in their respective media until they reached a confluency of 60-80%. […] For all other cell lines, compounds were dissolved in 0.2 mL of fresh media and then added directly to the cells.
(§4) Cell lysates for from HEK293T, LNCaP, HCT116 and PC3 cells were prepared for western blotting in the following manner, and all the steps were conducted at 4° C. […] Samples were transferred to a nitrocellulose membrane (Bio-Rad). Membranes were blocked with 5% bovine serum albumin in TBST and probed with primary antibodies overnight at 4° C. and for 1 h at RT with peroxidase conjugated secondary antibodies, as indicated in each figure. Blots were developed using enhanced chemiluminescence (Pierce) and visualized with an Amersham Imager 600.

[6] = system: HCF-1 cleavage in HEK293T cells; experiment: HCF-1 cleavage in HEK293T cells (Western blotting); format: cell-based; details: for uncleaved HCF-1: over 96 hours
Excerpt: (§1) In addition to glycosylating Ser/Thr residues of proteins, OGT catalyzes cleavage of the cell-cycle regulator HCF-1 by glycosylating a glutamate in the HCF-1 cleavage sequence.^4c,7 An OGT inhibitor would be expected to block cleavage. Indeed, a decrease in HCF-1 cleavage products and the appearance of uncleaved HCF-1 in cells treated with 1b, 2b or 4b was observed (FIGS. 2E, 16). Because OGT knockdown is known to decrease cell proliferation,^8 the effects of 1b, 2b, and 4b on cell growth in culture over 96 hours were also monitored. Although there was no evidence of apoptosis, reduced growth of cells was observed over time (FIG. 17), consistent with the knockdown results.

[7] = system: HEK293T cells; experiment: Quantitative proteomics / protein abundance in HEK293T cells; details: 20 μM
Method: At the indicated time point, cells were lysed in lysis buffer (2% SDS 50 mM Tris-HCl and 150 mM NaCl), sonicated (BioDisruptor) and protein concentration determined with the BCA assay. Samples were reduced with 5 mM DTT for 45 mins at 60° C., then alkylated with 14 mM iodoacetamide for 45 mins at room temperature in the dark. Then 100 μg of protein was precipitated using chloroform/methanol.^32 Protein pellets were resuspended in 200 mM HEPES pH 8.5 to 1 mg/mL. Proteins were digested with LysC (Wako) (substrate:enzyme=100) overnight at 37° C. and then with sequencing grade Trypsin (Promega) (substrate:enzyme=100) for 6 hours at 37° C. The resulting peptide solutions were then labelled with TMT 10/11-plex reagents (Thermo Scientific) for 1.5 hours at room temperature. Reactions were stopped by addition of 5% hydroxylamine for 30 minutes. Equal amounts of peptide samples were combined, dried by vacuum centrifugation and desalted on a Waters C18 solid phase extraction Sep-Pak. TMT-labeled peptide samples were fractionated via basic-pH reverse-phase (BPRP) HPLC to 96 fractions and then consolidated to 12 fractions. These fractions were subsequently acidified with 1% formic acid, vacuum centrifuged to near dryness and desalted with C18 stagetips.^32 Dried peptides were resuspended in 5% acetonitrile/5% formic acid for LC-MS/MS processing. […]
Precursors for MS2/MS3 analysis were selected using a Top10 method. […] Following acquisition of each MS2 spectrum, an MS3 spectrum was collected using the recently described method in which multiple MS2 fragment ions were captured in the MS3 precursor population using isolation waveforms with multiple frequency notches.^33b MS3 precursors were fragmented by high energy collision-induced dissociation (HCD) and analyzed using the Orbitrap (NCE 65; AGC 1.5×10^5; maximum injection time 150 ms, resolution was 50,000 at 400 Th, isolation window 0.7 Da).
Mass spectra were processed using a SEQUEST-based pipeline^23 Spectra were converted to mzXML using a modified version of ReAdW.exe. […]

[8] = system: global O-GlcNAcylation in PC3 cells; experiment: Western blotting for O-GlcNAc levels in PC3 cells; details: PC3 prostate cancer cells
Method: as §3, §4

[9] = system: HEK293T cells; experiment: CellTox Green Cytotoxicity Assay; format: cell-based; details: 24 hours, 0-50 μM
Method: (§2) HCT116 cells were plated into 384-well plate one day prior to treatment with compounds (300 cells per well). Compounds were dispensed using a D300e Digital Dispenser (Tecan). Cells were imaged every 3 hours using an IncuCyte ZOOM instrument (Sartorius) to generate growth curves. After four days of treatment, cell viability was assessed using the CellTiter-Glo® Luminescent Cell Viability Assay (Promega). Luminescence signal was recorded using the GloMax® Explorer System (Promega). For Cytotoxicity, HEK293T cells were plated into a 96-well plate two days prior to treatment with compounds at 80% confluency. The number of dead cells were assessed by CellTox™ Green Cytotoxicity Assay (Promega).

[10] = system: HCT116 cells; experiment: Cell viability and live-cell imaging (IncuCyte confluence, CellTiter-Glo); format: cell-based; details: for cellular confluency relative to DMSO control: HCT116, 40 μM, 96 hours; for cell growth: HCT116, 96 hours, 10 or 40 μM
Method: as §2

[11] = system: OGT's detained intron (intron 4) in HEK293T cells; experiment: Quantitative PCR of OGT detained intron splicing; format: cell-based; details: 10 μM, 2-hour treatment
Method: Total RNA was harvested directly from tissue culture plates using Trizol (Life Technologies) according to the manufacturer's directions. In all experiments, total RNA was treated with Turbo DNase (Life Technologies) to remove any residual DNA contamination, extracted in acid-buffered phenol/chloroform, and ethanol-precipitated. Reverse transcription was performed using 2 μg of DNase-treated total RNA in a 20 μL reaction following the manufacturer's protocol (SuperScript III, Life Technologies) for 1 h at 50° C. cDNA reactions were […] diluted 1:10, and 1 μL was used in each PCR reaction. Real-time qRT-PCR was performed using PowerUp SYBR Green (Life Technologies) on a StepOne-Plus Real-Time PCR System (Applied Biosystems).

[12] = system: global O-GlcNAcylation in HEK293T cells; experiment: Western blotting for global O-GlcNAc levels in HEK293T cells; format: cell-based; details: for protein O-GlcNAcylation: from 2 hours (FIG. 13E); for global O-GlcNAc levels, dose dependence: 4 hours (FIG. 13C); for O-GlcNAc levels after prolonged treatment: 96 hours (FIG. 13E)
[13] = system: global O-GlcNAcylation in HCT116 cells; experiment: Western blotting for global O-GlcNAc levels in HCT116 cells; format: cell-based; details: for O-GlcNAc levels, dose dependence: HCT116, 20-80 μM, 4 hours or 24 hours
[14] = system: HCF-1 cleavage in HCT116 cells; experiment: HCF-1 cleavage in HCT116 cells (Western blotting); format: cell-based; details: HCT116, 20-80 μM, 24 hours
Excerpt: as §1

[15] = biological target: T2, full length OGT (Homo sapiens, UniProt O15294); experiment: Dissociation constants by microscale thermophoresis (MST); details: read-out: Binding affinity (Kd ± s.d.), binding of compounds to OGT
T2 sequence (O15294 1-1046): T1 sequence (O15294 1-1046)
Method: Excess NHS-ester was removed with a Zeba™ Spin desalting column (ThermoFisher). A range of concentrations of the ligand were prepared in which the concentration of labeled OGT was kept constant at 5 nM, and all experiments were performed in MST running buffer (PBS, pH 7.4, 0.05% Tween-20, 1 mM DTT, 2% glycerol, 0.5% DMSO). Mixtures were incubated for at least 10 minutes to facilitate binding before MST experiments. MST experiments were carried out using 60% LED power and 20% MST power in standard capillaries (from NanoTemper Technologies). […] Kd values were calculated using a user-defined mass action equation in the GraphPad Prism 6 software (GraphPad Software, Inc.).

[16] = biological target: T3, OGT (Homo sapiens, UniProt O15294); details: SPR, value in parentheses; read-out: Binding affinity (Kd ± s.d.) determined by SPR; cited from earlier work
T3 sequence (O15294 1-1046): T1 sequence (O15294 1-1046)

## CCOC(=O)CN(Cc1cccs1)C(=O)[C@H](NS(=O)(=O)c1cc2ccc(=O)[nH]c2cc1C)c1ccccc1OC
[1]
  half-life: 1.3 min
[2]
  Papp: 5110 nm/s
[3]
  solubility: 0.0211 mg/mL (≈ 36.1 µM)
[4]; UDP-Glo assay, 300 nM ncOGT, 40 μM UDP-GlcNAc
  IC50: 1.8 µM
[4]; calculated from IC50 (UDP-Glo) by Cheng-Prusoff
  Ki: 0.103 µM

## COC(=O)CN(Cc1cccs1)C(=O)[C@H](NS(=O)(=O)c1ccc2[nH]c(=O)ccc2c1)c1ccccc1OC [1b, Methyl (R)—N-(2-(2-methoxyphenyl)-2-((2-oxo-1,2-dihydroquinoline)-6-sulfonamido)acetyl)-N-(thiophen-2-ylmethyl)glycinate]
[5]
  O-GlcNAc levels: Decreases in O-GlcNAc levels
[6]
  uncleaved HCF-1: time dependent increase in uncleaved HCF-1
[7]; 4 and 24 hours
  OGT level (Western blotting): an increase in OGT
[7]; 24 hr
  changes in abundance of other proteins (off-target activity): Few significant changes
[7]; time course 8, 16, 24 hours
  abundance of OGT and OGA (proteomics): reciprocal changes in the abundance of OGT and OGA
[8]
  O-GlcNAc levels: Decreases in O-GlcNAc levels
[9]
  cytotoxic cell death: did not result in cytotoxic cell death
[10]
  cellular confluency relative to DMSO control: confluency is reduced
  cell growth: reduced cell growth compared with the control
[11]
  detained intron splicing of OGT transcript: increased detained intron splicing
[12]; HEK293T, 20 μM, 24 hours (FIG. 13B)
  O-GlcNAc levels: O-GlcNAc levels recover after 24 hours
[12]; HEK293T, 20 μM
  protein O-GlcNAcylation: decreased protein O-GlcNAcylation in as little as 2 hours
[12]; HEK293T
  global O-GlcNAc levels, dose dependence: dose dependent decreases in global O-GlcNAc levels
  O-GlcNAc levels after prolonged treatment: recover
[12]; short treatment times (<8 hr)
  ability to inhibit global O-GlcNAcylation: decent inhibitor
[13]
  O-GlcNAc levels, dose dependence: dose dependent decreases in O-GlcNAc levels

## CCOC(=O)CCCOc1ccccc1[C@@H](NS(=O)(=O)c1ccc2[nH]c(=O)ccc2c1)C(=O)N(CC(=O)OCC)Cc1cccs1 [2b, Ethyl (R)-4-(2-(2-((2-ethoxy-2-oxoethyl)(thiophen-2-ylmethyl)amino)-2-oxo-1-((2-oxo-1,2-dihydroquinoline)-6-sulfonamido)ethyl)phenoxy)butanoate]
[5]
  O-GlcNAc levels: Decreases in O-GlcNAc levels
[6]; 20 μM, 48 hours
  HCF-1 cleavage: blocked HCF-1 cleavage
[6]
  uncleaved HCF-1: time dependent increase in uncleaved HCF-1
[8]
  O-GlcNAc levels: Decreases in O-GlcNAc levels
[9]
  cytotoxic cell death: did not result in cytotoxic cell death
[10]
  cellular confluency relative to DMSO control: confluency is reduced
  cell growth: reduced cell growth compared with the control
[11]
  detained intron splicing of OGT transcript: increased detained intron splicing
[14]
  HCF-1 cleavage, 2b compared with 1b: more effective at reducing HCF-1 cleavage
[12]; HCT116, HEK293T, PC3, and LNCaP cells
  ability to inhibit global O-GlcNAcylation, ranking: best activity
[12]; HEK293T, 20 μM
  protein O-GlcNAcylation: decreased protein O-GlcNAcylation in as little as 2 hours
[12]; HEK293T
  global O-GlcNAc levels, dose dependence: dose dependent decreases in global O-GlcNAc levels
  O-GlcNAc levels after prolonged treatment: remain very low
[13]
  O-GlcNAc levels, dose dependence: dose dependent decreases in O-GlcNAc levels
[13]; HCT116, 24-hour treatment, 20 μM (FIG. 15B)
  global O-GlcNAc levels, comparison with 1b: more effective than 1b

## CC(=O)N[C@H]1[C@@H](OP(=O)(O)OP(=O)(O)OC[C@H]2O[C@@H](n3ccc(=O)[nH]c3=O)[C@H](O)[C@@H]2O)O[C@H](CO)[C@@H](O)[C@@H]1O [UDP-GlcNAc, reference compound]
[15]
  Kd: 16 ± 4 µM
[16]
  Kd: 16.1 µM

## CCOC(=O)CN(Cc1cccs1)C(=O)[C@H](NS(=O)(=O)c1cc2ccc(=O)[nH]c2cc1Cl)c1ccccc1OC [drawing 86]
[1]
  half-life: 1.9 min
[2]
  Papp: 5400 nm/s
[3]
  solubility: 0.019 mg/mL (≈ 31.5 µM)
